Results reported in article PMC3044687, “The C-Terminal Domain of the Arabinosyltransferase Mycobacterium tuberculosis EmbC Is a Lectin-Like Carbohydrate Binding Module” (PLoS Pathogens, 2011).

Legend:
Format in all cases: binding
EmbC^CT(W868A) = EmbC^CT(W868A) (Mycobacterium tuberculosis, UniProt P9WNL5, W868A)
EmbC^CT(W985A) = EmbC^CT(W985A) (Mycobacterium tuberculosis, UniProt P9WNL5, W985A)
EmbC^CT(N740A) = EmbC^CT(N740A) (Mycobacterium tuberculosis, UniProt P9WNL5, N740A)
EmbC^CT(H911A) = EmbC^CT(H911A) (Mycobacterium tuberculosis, UniProt P9WNL5, H911A)

CCCCCCCCO[C@H]1O[C@H](CO[C@H]2O[C@H](CO[C@H]3O[C@H](CO[C@H]4O[C@H](CO[C@H]5O[C@H](CO)[C@@H](O)[C@@H]5O)[C@@H](O)[C@@H]4O)[C@@H](O)[C@@H]3O)[C@@H](O)[C@@H]2O)[C@@H](O)[C@@H]1O [Ara(1→5)4Ara-O-C8, [α-D-Araf-(1→5)]4-α-D-Araf-O-(CH2)7CH3]
effect of W868A mutation on ligand binding (in words) (EmbC^CT(W868A)): completely inhibited
Fmax (EmbC^CT(W985A)): 0.164
effect of W985A mutation on ligand binding (in words) (EmbC^CT(W985A)): insensitive

CCCCCCCCO[C@H]1O[C@H](CO[C@H]2O[C@H](CO)[C@@H](O)[C@@H]2O)[C@@H](O)[C@@H]1O [Ara(1→5)Ara-O-C8, α-D-Araf-(1→5)-α-D-Araf-O-(CH2)7CH3]
Fmax (EmbC^CT(N740A)): 0.141
Fmax (EmbC^CT(W868A)): 0.162
effect of W868A mutation on ligand binding (in words) (EmbC^CT(W868A)): preserved binding
Fmax (EmbC^CT(H911A)): 0.170
effect of W985A mutation on ligand binding (in words) (EmbC^CT(W985A)): virtually abrogated binding
